The source of these data is patent publication US8293753B2, “Substituted 2-carboxamide cycloamino ureas” (Novartis AG, priority 2009, dated 2012).

Some results are limits rather than exact numbers.

Assay type in all cases: biochemical
Experiment [1] has as its target T1, PI3Kα (Homo sapiens, UniProt P42336).
T1 construct: His (C); made in house; host or cells: baculovirus / Tn5 insect cells
The experiment is described as follows: PI3K KinaseGlo assay, PI3Kalpha. To be noted: 1 μM ATP, 10 nM enzyme, 30 mins.

In experiment [2] the target is T2, PI3Kβ (Homo sapiens, UniProt P42338).
T2 construct: His (C); made in house; host or cells: baculovirus / Tn5 insect cells
The experiment is described as follows: PI3K KinaseGlo assay, PI3Kbeta. To be noted: for IC50: KinaseGlo, 1 μM ATP, 25 nM enzyme, 30 mins; for PI3Kbeta (selectivity): selectivity factor: PI3Kbeta IC50 divided by PI3Kalpha IC50.

Experiment [3] deals with T3, PI3Kγ (Homo sapiens, UniProt P48736, Q459R).
T3 construct: His (C); made in house; host or cells: Tn5 insect cells; construct obtained from Roger Williams lab (MRC LMB)
The experiment is described as follows: PI3K KinaseGlo assay, PI3Kgamma. As to conditions: for IC50: KinaseGlo, 1 μM ATP, 150 nM enzyme, 90 mins; for PI3Kgamma (selectivity): selectivity factor: PI3Kgamma IC50 divided by PI3Kalpha IC50. On the procedure: PI3K KinaseGlo assay: […] of compound dilutions were dispensed onto black 384-well low volume Non Binding Styrene (NBS) plates (Costar Cat. No. NBS#3676). L-a-phosphatidylinositol (PI), provided as 10 mg/ml solution in methanol, was transferred into a glass tube and dried under nitrogen beam. It was then resuspended in 3% OctylGlucoside (OG) by vortexing and stored at 4° C. The KinaseGlo Luminescent Kinase Assay (Promega, Madison/WI, USA) is a homogeneous HTS method of measuring kinase activity by quantifying the amount of ATP remaining in solution following a kinase reaction.
5 μL of a mix of PI/OG with the PI3K subtype were added (Table 1). Kinase reactions were started by addition of 5 μl of ATP-mix containing in a final volume 10 μL 10 mM TRIS-HCl pH 7.5, 3 mM MgCl2, 50 mM NaCl, 0.05% CHAPS, 1 mM DTT and 1 μM ATP, and occurred at room temperature. Reactions were stopped with 10 μl of KinaseGlo and plates were read 10 mins later in a Synergy2 reader using an integration time of 0.1 seconds per well. […] The standard was used as a reference compound and included in all assay plates in the form of 16 dilution points in duplicate.
The PI3Kα, PI3Kβ and PI3Kδ constructs are fusion of p85α iSH2 domain and the respective p110 isoforms. The p85α fragment and p110 isoform genes were generated by PCR from first strand cDNA generated by RT-PCR from commercial RNA from placenta, testis and brain as described below. The PI3Kγ construct was obtained from Roger Williams lab, MRC Laboratory of Molecular Biology, Cambridge, UK (November, 2003) and is described (Pacold, Michael E.; Suire, Sabine; Perisic, Olga; Lara-Gonzalez, Samuel; Davis, Colin T.; Walker, Edward H.; Hawkins, Phillip T.; Stephens, Len; Eccleston, John F.; Williams, Roger L. Crystal structure and functional analysis of Ras binding to its effector phosphoinositide 3-kinase gamma. Cell (2000), 103(6), 931-943).
Construct obtained from Roger Williams lab, MRC Laboratory of Molecular Biology, Cambridge, UK (November, 2003). Description of the construct in (Pacold, Michael E.; Suire, Sabine; Perisic, Olga; Lara-Gonzalez, Samuel; Davis, Colin T.; Walker, Edward H.; Hawkins, Phillip T.; Stephens, Len; Eccleston, John F.; Williams, Roger L. Crystal structure and functional analysis of Ras binding to its effector phosphoinositide 3-kinase gamma. Cell (2000), 103(6), 931-943). Constructs lacking the N-terminal 144 aa.

The target in experiment [4] is T4, PI3Kδ (Homo sapiens, UniProt O00329).
T4 construct: p85iSH2(461-568)-GGGGGG-p110δ(2-1044)-His; His (C); made in house; host or cells: baculovirus / Tn5 insect cells
Nature of the experiment: PI3K KinaseGlo assay, PI3Kdelta. As to conditions: for IC50: KinaseGlo, 1 μM ATP, 10 nM enzyme, 30 mins; for PI3Kdelta (selectivity): selectivity factor: PI3Kdelta IC50 divided by PI3Kalpha IC50.

T3 sequence (P48736 with tags, fused parts or gaps Q459R): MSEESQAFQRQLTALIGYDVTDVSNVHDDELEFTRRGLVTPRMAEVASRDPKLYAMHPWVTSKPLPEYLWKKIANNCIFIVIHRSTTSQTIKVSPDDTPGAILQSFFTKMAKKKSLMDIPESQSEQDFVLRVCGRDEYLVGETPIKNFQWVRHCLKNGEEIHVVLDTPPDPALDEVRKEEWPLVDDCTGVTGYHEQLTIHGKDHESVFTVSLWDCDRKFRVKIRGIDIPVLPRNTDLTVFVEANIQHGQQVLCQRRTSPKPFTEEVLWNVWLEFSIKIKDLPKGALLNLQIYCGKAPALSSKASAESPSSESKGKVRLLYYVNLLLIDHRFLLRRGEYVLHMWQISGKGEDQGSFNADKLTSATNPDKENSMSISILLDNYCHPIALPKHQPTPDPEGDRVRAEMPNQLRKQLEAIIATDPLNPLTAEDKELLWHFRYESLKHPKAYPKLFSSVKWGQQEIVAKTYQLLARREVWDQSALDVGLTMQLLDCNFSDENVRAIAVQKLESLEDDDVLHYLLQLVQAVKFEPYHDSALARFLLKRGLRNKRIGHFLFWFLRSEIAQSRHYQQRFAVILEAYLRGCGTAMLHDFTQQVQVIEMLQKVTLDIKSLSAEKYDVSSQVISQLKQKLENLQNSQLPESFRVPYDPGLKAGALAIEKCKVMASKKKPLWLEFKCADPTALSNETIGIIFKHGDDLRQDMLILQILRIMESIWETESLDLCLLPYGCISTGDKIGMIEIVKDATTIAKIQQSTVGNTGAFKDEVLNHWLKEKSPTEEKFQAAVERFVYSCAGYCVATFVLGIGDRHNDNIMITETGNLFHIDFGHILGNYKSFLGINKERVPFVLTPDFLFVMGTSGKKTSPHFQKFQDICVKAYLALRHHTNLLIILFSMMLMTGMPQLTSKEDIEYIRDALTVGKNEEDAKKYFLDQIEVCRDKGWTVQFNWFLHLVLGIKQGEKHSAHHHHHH
T4 sequence (O00329 with tags, fused parts or gaps): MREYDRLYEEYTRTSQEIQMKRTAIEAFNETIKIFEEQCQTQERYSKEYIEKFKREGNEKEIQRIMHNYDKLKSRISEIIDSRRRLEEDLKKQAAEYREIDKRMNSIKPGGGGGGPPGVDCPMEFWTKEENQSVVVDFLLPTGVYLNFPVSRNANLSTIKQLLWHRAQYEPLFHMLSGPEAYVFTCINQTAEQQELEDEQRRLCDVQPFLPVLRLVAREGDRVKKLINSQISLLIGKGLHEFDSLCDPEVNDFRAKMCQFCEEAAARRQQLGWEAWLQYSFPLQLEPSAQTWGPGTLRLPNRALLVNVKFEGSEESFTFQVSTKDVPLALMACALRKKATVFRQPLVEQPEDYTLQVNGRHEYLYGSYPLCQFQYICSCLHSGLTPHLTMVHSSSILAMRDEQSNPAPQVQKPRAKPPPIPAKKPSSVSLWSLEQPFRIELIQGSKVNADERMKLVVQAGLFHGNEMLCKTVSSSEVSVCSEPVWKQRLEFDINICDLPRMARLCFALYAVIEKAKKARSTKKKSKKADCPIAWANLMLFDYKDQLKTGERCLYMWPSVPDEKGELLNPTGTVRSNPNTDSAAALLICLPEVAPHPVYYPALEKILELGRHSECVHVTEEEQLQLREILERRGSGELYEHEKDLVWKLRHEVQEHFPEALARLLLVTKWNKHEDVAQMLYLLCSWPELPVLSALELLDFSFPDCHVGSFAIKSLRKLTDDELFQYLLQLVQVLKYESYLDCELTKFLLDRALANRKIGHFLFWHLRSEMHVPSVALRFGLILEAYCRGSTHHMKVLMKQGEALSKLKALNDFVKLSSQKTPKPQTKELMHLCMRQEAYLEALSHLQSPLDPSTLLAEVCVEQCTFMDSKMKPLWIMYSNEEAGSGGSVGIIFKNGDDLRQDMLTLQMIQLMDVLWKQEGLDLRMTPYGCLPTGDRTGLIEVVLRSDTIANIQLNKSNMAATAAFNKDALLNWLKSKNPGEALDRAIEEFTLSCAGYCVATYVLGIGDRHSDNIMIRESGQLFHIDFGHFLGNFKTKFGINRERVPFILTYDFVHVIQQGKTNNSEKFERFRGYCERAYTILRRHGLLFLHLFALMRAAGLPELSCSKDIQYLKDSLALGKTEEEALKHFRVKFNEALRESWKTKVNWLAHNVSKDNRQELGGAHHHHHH
T2 sequence (P42338 with tags, fused parts or gaps): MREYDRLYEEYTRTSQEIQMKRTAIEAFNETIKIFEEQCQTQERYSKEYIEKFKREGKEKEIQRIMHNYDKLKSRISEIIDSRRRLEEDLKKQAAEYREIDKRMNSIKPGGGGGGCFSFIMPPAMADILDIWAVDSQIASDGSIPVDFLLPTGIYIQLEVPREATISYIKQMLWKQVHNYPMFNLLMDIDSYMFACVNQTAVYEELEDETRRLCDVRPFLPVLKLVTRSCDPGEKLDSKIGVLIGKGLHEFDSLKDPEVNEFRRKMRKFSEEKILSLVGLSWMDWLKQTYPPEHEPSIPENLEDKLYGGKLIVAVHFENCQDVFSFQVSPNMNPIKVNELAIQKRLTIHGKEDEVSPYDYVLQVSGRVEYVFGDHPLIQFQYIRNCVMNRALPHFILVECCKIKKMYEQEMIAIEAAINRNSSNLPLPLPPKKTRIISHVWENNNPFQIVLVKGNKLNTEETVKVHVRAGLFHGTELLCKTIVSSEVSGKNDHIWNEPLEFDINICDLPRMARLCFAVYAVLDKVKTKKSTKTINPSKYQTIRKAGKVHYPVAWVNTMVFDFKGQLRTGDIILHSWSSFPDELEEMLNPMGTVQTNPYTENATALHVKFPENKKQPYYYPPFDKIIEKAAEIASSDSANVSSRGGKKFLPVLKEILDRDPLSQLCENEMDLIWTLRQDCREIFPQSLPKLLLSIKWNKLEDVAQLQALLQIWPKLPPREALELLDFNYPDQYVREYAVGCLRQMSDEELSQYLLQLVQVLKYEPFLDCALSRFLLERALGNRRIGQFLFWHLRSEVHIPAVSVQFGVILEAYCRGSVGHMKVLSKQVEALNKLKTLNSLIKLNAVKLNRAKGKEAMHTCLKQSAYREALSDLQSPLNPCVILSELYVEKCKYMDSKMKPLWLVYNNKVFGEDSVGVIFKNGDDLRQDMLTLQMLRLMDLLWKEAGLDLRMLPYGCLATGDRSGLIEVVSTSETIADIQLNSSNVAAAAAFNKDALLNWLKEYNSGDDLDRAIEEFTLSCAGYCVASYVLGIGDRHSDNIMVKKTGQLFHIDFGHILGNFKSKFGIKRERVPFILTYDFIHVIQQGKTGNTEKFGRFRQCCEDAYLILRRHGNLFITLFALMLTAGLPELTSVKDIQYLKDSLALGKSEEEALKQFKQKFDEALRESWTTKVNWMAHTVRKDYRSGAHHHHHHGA
T1 sequence (P42336 with tags, fused parts or gaps): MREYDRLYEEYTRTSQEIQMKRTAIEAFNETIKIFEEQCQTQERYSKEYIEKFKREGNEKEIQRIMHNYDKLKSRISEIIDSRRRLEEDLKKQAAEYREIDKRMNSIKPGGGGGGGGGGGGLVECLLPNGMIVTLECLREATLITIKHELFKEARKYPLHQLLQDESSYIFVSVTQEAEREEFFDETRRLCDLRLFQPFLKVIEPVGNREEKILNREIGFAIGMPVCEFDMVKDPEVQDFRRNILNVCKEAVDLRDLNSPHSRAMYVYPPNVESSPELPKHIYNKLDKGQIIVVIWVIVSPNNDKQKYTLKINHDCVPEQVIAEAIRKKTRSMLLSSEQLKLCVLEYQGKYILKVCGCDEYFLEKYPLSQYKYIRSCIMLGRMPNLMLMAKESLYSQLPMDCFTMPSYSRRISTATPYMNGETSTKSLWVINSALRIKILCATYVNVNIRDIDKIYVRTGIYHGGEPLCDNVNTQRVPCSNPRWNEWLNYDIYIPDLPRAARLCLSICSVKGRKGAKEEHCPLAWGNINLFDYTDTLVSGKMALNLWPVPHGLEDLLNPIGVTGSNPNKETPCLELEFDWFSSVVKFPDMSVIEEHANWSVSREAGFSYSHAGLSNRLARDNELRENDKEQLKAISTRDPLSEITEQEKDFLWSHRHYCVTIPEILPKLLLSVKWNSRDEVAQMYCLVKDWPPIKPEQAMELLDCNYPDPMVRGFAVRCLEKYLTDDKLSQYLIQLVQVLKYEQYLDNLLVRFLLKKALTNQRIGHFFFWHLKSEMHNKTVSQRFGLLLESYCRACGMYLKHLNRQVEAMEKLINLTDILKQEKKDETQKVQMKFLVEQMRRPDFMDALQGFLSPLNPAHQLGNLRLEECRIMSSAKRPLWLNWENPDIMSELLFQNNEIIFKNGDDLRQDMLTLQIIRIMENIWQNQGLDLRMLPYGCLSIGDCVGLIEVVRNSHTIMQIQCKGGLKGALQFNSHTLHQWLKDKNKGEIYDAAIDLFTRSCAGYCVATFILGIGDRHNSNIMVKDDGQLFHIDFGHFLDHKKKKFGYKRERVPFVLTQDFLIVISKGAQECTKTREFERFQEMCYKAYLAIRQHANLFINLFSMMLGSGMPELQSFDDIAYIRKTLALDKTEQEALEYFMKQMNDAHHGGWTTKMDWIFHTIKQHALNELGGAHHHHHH

As to `Cc1nc(NC(=O)N2CCC(C)(C)C2C(N)=O)sc1-c1ccnc(C2(C)CC2)c1` (racemic) [Example 3, (rac)-3,3-Dimethyl-pyrrolidine-1,2-dicarboxylic acid 2-amide 1-({4-methyl-5-[2-(1-methyl-cyclopropyl)-pyridin-4-yl]-thiazol-2-yl}-amide)], the IC50 in experiment [1] is 53 nM; in experiment [2] it was above 9100 nM; in experiment [3], 1080 nM; in experiment [4] it was 800 nM. Moreover, in experiment [2], the “PI3Kbeta (selectivity)” value was “(>171)”. Also, the “PI3Kgamma (selectivity)” value in experiment [3] was “(20)”. Moreover, in experiment [4], the “PI3Kdelta (selectivity)” value is listed as “(15)”.
In the case of `Cc1nc(NC(=O)N2CCC(C)(C)C2C(N)=O)sc1-c1ccnc(C(C)(C)C(F)(F)F)c1` (racemic) [Example 4, (rac)-3,3-Dimethyl-pyrrolidine-1,2-dicarboxylic acid 2-amide 1-({4-methyl-5-[2-(2,2,2-trifluoro-1,1-dimethyl-ethyl)-pyridin-4-yl]-thiazol-2-yl}-amide)], the IC50 in experiment [1] was determined as 91 nM; in experiment [2] it was 6960 nM; in experiment [3], 1680 nM; in experiment [4], 437 nM. The “PI3Kbeta (selectivity)” value in experiment [2] is on record as “(76)”. Besides, the “PI3Kgamma (selectivity)” value in experiment [3] is “(18)”. Further, the “PI3Kdelta (selectivity)” value in experiment [4] was “(4)”.
On to `Cc1nc(NC(=O)N2CC[C@@H](C)[C@H]2C(N)=O)sc1-c1ccnc(C2(C)CC2)c1` [Example 1, (2S,3R)-3-Methyl-pyrrolidine-1,2-dicarboxylic acid 2-amide 1-({4-methyl-5-[2-(1-methyl-cyclopropyl)-pyridin-4-yl]-thiazol-2-yl}-amide)], for which, in experiment [1], half-maximal inhibition (IC50) was put at 7 nM. Further, in experiment [2], the 50% inhibitory concentration (IC50) was found to be 2600 nM and the “PI3Kbeta (selectivity)” value was “(370)”. In addition, in experiment [3], the half-maximal inhibitory concentration (IC50) was determined as 175 nM and the “PI3Kgamma (selectivity)” value is listed as “(25)”. Further, in experiment [4], half-maximal inhibition (IC50) required 168 nM and the “PI3Kdelta (selectivity)” value is reported as “(24)”.
Regarding `Cc1nc(NC(=O)N2CC[C@@H](C)[C@H]2C(N)=O)sc1-c1ccnc(C(C)(C)C(F)(F)F)c1` [Example 2, (2S,3R)-3-Methyl-pyrrolidine-1,2-dicarboxylic acid 2-amide 1-({4-methyl-5-[2-(2,2,2-trifluoro-1,1-dimethyl-ethyl)-pyridin-4-yl]-thiazol-2-yl}-amide)], the IC50 was found to be 27 nM in experiment [1], 1200 nM in experiment [2], 104 nM in experiment [3] and 59 nM in experiment [4]. For the same compound, the “PI3Kbeta (selectivity)” value in experiment [2] is reported as “(44)”. The “PI3Kgamma (selectivity)” value in experiment [3] is on record as “(3)”. Besides, the “PI3Kdelta (selectivity)” value in experiment [4] was “(2)”.
In turn, `CC(=O)NC[C@@H]1CCN(C(=O)Nc2nc(C)c(-c3ccnc(C4(C)CC4)c3)s2)[C@@H]1C(N)=O` [Example 5, (2S,3S)-3-(Acetylamino-methyl)pyrrolidine-1,2-dicarboxylic acid 2-amide 1-({4-methyl-5-[2-(1-methyl-cyclopropyl)-pyridin-4-yl]-thiazol-2-yl}-amide)] came in with an IC50 in experiment [1] of 18 nM. Also, in experiment [2], the IC50 stood at 3220 nM and the “PI3Kbeta (selectivity)” value was “(178)”. Also, in experiment [4], the IC50 was 240 nM and the “PI3Kdelta (selectivity)” value is recorded as “(13)”.
In the case of `CC(=O)NC[C@@H]1CCN(C(=O)Nc2nc(C)c(-c3ccnc(C(C)(C)C(F)(F)F)c3)s2)[C@@H]1C(N)=O` [Example 6, (2S,3S)-3-(Acetylamino-methyl)-pyrrolidine-1,2-dicarboxylic acid 2-amide 1-({4-methyl-5-[2-(2,2,2-trifluoro-1,1-dimethyl-ethyl)-pyridin-4-yl]-thiazol-2-yl}-amide)], the values for the IC50 in experiment [1], in experiment [2] and in experiment [4] were 13 nM, 990 nM and 684 nM, respectively. For the same compound, in experiment [2], the “PI3Kbeta (selectivity)” value was “(76)”. The “PI3Kdelta (selectivity)” value in experiment [4] was “(52)”.
As for `Cc1nc(NC(=O)N2CC[C@@H](CN3CCOCC3)[C@H]2C(N)=O)sc1-c1ccnc(C2(C)CC2)c1` [Example 7, (2S,3S)-3-Morpholin-4-ylmethyl-pyrrolidine-1,2-dicarboxylic acid 2-amide 1-({4-methyl-5-[2-(1-methyl-cyclopropyl)-pyridin-4-yl]-thiazol-2-yl}-amide)], the concentration for half-maximal inhibition (IC50) in experiment [1] is 38 nM. Moreover, in experiment [2], half-maximal inhibition (IC50) required 5150 nM and the “PI3Kbeta (selectivity)” value is on record as “(136)”. Besides, in experiment [4], half-maximal inhibition (IC50) was put at 190 nM and the “PI3Kdelta (selectivity)” value is given as “(5)”.
For `Cc1nc(NC(=O)N2CC[C@@H](CN3CCOCC3)[C@H]2C(N)=O)sc1-c1ccnc(C(C)(C)C(F)(F)F)c1` [Example 8, (2S,3S)-3-Morpholin-4-ylmethyl-pyrrolidine-1,2-dicarboxylic acid 2-amide 1-({4-methyl-5-[2-(2,2,2-trifluoro-1,1-dimethyl-ethyl)-pyridin-4-yl]-thiazol-2-yl}-amide)], in that order: 6 nM, 2280 nM, “(380)”, 49 nM and “(8)”.
`Cc1nc(NC(=O)N2CC[C@@H](C)[C@H]2C(N)=O)sc1-c1ccnc(C(C)(C)F)n1` [Example 9, (2S,3R)-3-Methyl-pyrrolidine-1,2-dicarboxylic acid 2-amide 1-({5-[2-(1-fluoro-1-methyl-ethyl)-pyrimidin-4-yl]-4-methyl-thiazol-2-yl}-amide)] had an IC50 in experiment [1] of 10 nM. Moreover, in experiment [2], the IC50 is above 9100 nM and the “PI3Kbeta (selectivity)” value is reported as “(910)”. Further, in experiment [3], the IC50 was found to be 200 nM and the “PI3Kgamma (selectivity)” value is given as “(20)”. Also, in experiment [4], the IC50 amounted to 586 nM and the “PI3Kdelta (selectivity)” value is “(58)”.
For `COC[C@@H]1CCN(C(=O)Nc2nc(C)c(-c3ccnc(C(C)(C)C(F)(F)F)c3)s2)[C@@H]1C(N)=O` [Example 14, (2S,3R)-3-Methoxymethyl-pyrrolidine-1,2-dicarboxylic acid 2-amide 1-({4-methyl-5-[2-(2,2,2-trifluoro-1,1-dimethyl-ethyl)-pyridin-4-yl]-thiazol-2-yl}-amide)], in experiment [1], the IC50 came to 12 nM. Also, in experiment [2], the IC50 is 1460 nM and the “PI3Kbeta (selectivity)” value is reported as “(122)”. Further, in experiment [4], half-maximal inhibition (IC50) was put at 110 nM and the “PI3Kdelta (selectivity)” value is “(9)”.
Take `Cc1nc(NC(=O)N2CC[C@@H](CN(C)C)[C@H]2C(N)=O)sc1-c1ccnc(C(C)(C)C(F)(F)F)c1` [Example 15, (2S,3S)-3-Dimethylaminomethyl-pyrrolidine-1,2-dicarboxylic acid 2-amide 1-({4-methyl-5-[2-(2,2,2-trifluoro-1,1-dimethyl-ethyl)-pyridin-4-yl]-thiazol-2-yl}-amide)]: half-maximal inhibition in experiment [1] (IC50) was put at 17 nM. Moreover, in experiment [2], 3260 nM corresponded to half-maximal inhibition (IC50) and the “PI3Kbeta (selectivity)” value is listed as “(192)”. Also, in experiment [4], the IC50 came out at 93 nM and the “PI3Kdelta (selectivity)” value was “(5)”.
In experiment [1], `Cc1nc(NC(=O)N2CC[C@@H](C)[C@H]2C(N)=O)sc1-c1ccnc(C(C)(C)C)c1` [Example 16, (2S,3R)-3-Methyl-pyrrolidine-1,2-dicarboxylic acid 2-amide 1-{[5-(2-tert-butyl-pyridin-4-yl)-4-methyl-thiazol-2-yl]-amide}] returned an IC50 of 9 nM. Also, in experiment [2], the 50% inhibitory concentration (IC50) turned out to be 2170 nM and the “PI3Kbeta (selectivity)” value is reported as “(241)”. Further, in experiment [4], the IC50 worked out at 113 nM and the “PI3Kdelta (selectivity)” value is recorded as “(13)”.
